Reference: US6936607B2, “2,4,6-Triaminopyrimidines for the treatment of depression and/or anxiety” (H. Lunobeck A/S, priority 2002, dated 2005)

Biological target: T1, human GalR3 receptor (Homo sapiens, UniProt O60755)
T1 construct: expressed in transfected cells; host or cells: mouse fibroblast LM(tk-) cells, stably transfected; membranes
T1 sequence (O60755 1-368): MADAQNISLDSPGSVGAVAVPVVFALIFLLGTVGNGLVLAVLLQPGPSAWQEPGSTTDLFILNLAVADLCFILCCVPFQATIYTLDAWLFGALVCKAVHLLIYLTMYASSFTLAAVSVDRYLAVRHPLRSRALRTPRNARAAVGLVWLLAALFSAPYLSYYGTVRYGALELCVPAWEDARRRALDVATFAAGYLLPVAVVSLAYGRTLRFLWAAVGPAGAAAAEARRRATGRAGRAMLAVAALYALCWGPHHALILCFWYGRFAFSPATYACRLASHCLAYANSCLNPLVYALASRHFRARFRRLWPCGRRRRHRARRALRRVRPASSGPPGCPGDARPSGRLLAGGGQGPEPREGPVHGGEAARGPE
Assay: Radioligand binding assay at cloned human GalR3 receptor
Details: Binding Data; membranes from LM(tk-) cells stably transfected with the human GalR3 receptor
Procedure: LM(tk-) cells were stably transfected with the human GalR3 receptor. cDNAs for the human and rat GalR3 receptors were transfected with a G-418 resistant gene into the mouse fibroblast LM(tk-) cell line by a calcium phosphate transfection method (Cullen, 1987). Membranes were harvested from stably transfected LM(tk-) cells. Adherent cells were washed twice in ice-cold phosphate buffered saline (138 mM NaCl, 8.1 mM Na2HPO4, 2.5 mM KCl, 1.2 mM KH2PO4, 0.9 mM CaCl2, 0.5 mM MgCl2, pH 7.4) and lysed by sonication in ice-cold sonication buffer (20 mM Tris-HCl, 5 mM EDTA, pH 7.7). Large particles and debris were cleared by low speed centrifugation (200×g, 5 min, 4° C.). Membranes were collected from the supernatant fraction by centrifugation (32,000×g, 18 min, 4° C.), washed with ice-cold hypotonic buffer, and collected again by centrifugation (32,000×g, 18 min, 4° C.). The final membrane pellet was resuspended by sonication into a small volume of ice-cold binding buffer (˜1 ml for every 5 plates: 10 mM NaCl, 20 mM HEPES, 0.22 mM KH2PO4, 1.26 mM CaCl2, 0.81 mM MgSO4, pH 7.4). Protein concentration was measured by the Bradford method (Bradford, 1976) using Bio-Rad Reagent, with bovine serum albumin as a standard. Membranes were held on ice for up to one hour and used fresh, or flash frozen and stored in liquid nitrogen. Membranes were prepared similarly from CHO cells. The methods to obtain the cDNA of the receptors, express said receptors in heterologous systems, and carry out assays to determine binding affinity are described as follows. Binding assays were performed according to the following published method: human GALR3 (PCT International Publication No. WO 02/060392).

| SMILES | Ki |
| --- | --- |
| Cc1ccc(Nc2cc(N(C)C)nc(NCc3ccccc3)n2)cc1 [Example 39, N^2-BENZYL-N^4,N^4-DIMETHYL-N^6-(4-METHYLPHENYL)-2,4,6-PYRIMIDINE TRIAMINE] | 114 nM |
| Cc1ccc(Nc2cc(N(C)C)nc(N3CCN(c4ccc(Cl)cc4)CC3)n2)cc1 [Example 7, 2-[4-(4-CHLOROPHENYL)-1-PIPERAZINYL]-N^4,N^4-DIMETHYL-N^6-(4-METHYLPHENYL)-4,6-PYRIMIDINEDIAMINE] | 352 nM |
| CCN(CC)c1cc(C)ccc1Nc1cc(N(C)C)nc(N2CCN(c3ccccn3)CC2)n1 [Example 44, N^4-[2-(DIETHYLAMINO)-4-METHYLPHENYL]-N^6,N^6-DIMETHYL-2-[4-(2-PYRIDINYL)-1-PIPERAZINYL]-4,6-PYRIMIDINEDIAMINE] | 314 nM |
| CN(C)c1cc(Nc2ccc(SC(F)(F)F)c(Cl)c2)nc(N2CCN(c3ccccc3Cl)CC2)n1 [Example 22, 2-[4-(2-CHLOROPHENYL)-1-PIPERAZINYL]-N^4-{3-CHLORO-4-[(TRIFLUOROMETHYL) SULFANYL]PHENYL}-N^6,N^6-DIMETHYL-4,6-PYRIMIDINE DIAMINE] | 182 nM |
| CN(C)c1cc(Nc2ccc(C3CCCCC3)cc2)nc(N2CCN(c3ccc(Cl)cc3)CC2)n1 [Example 10, 2-[4-(4-CHLOROPHENYL)-1-PIPERAZINYL]-N^4-(4-CYCLOHEXYLPHENYL)-N^6,N^6-DIMETHYL-4,6-PYRIMIDINEDIAMINE] | 47 nM |
| CCn1ccc2ccc(Nc3cc(N(C)C)nc(N4CCN(c5ccccn5)CC4)n3)cc21 [Example 47, N^4-(1-ETHYL-1H-INDOL-6-YL)-N^6,N^6-DIMETHYL-2-[4-(2-PYRIDINYL)-1-PIPERAZINYL]-4,6-PYRIMIDINEDIAMINE] | 351 nM |
| CN(C)c1cccc(Nc2cc(N(C)C)nc(N3CCN(c4ccccn4)CC3)n2)c1 [Example 28, N^4-[3-(DIMETHYLAMINO)PHENYL]-N^6,N^6-DIMETHYL-2-[4-(2-PYRIDINYL)-1-PIPERAZINYL]-4,6-PYRIMIDINEDIAMINE] | 417 nM |
| CCC(C)Nc1cc(Nc2cc(N(C)C)nc(N3C[C@@H](C)O[C@@H](C)C3)n2)ccc1C (stereo partly drawn) [Example 50, N^4-[3-(SEC-BUTYLAMINO)-4-METHYLPHENYL]-2-[CIS-2,6-DIMETHYL MORPHOLINYL]-N^6,N^6-DIMETHYL-4,6-PYRIMIDINEDIAMINE] | 312 nM |
| Cc1ccc(Nc2cc(N(C)C)nc(N3C[C@@H](C)O[C@@H](C)C3)n2)cc1N(C)Cc1ccccc1 [Example 49, N^4-{3-[BENZYL(METHYL)AMINO]-4-METHYLPHENYL}-2-[CIS-2,6-DIMETHYIMORPHOLINYL]-N^6,N^6-DIMETHYL-4,6-PYRIMIDINEDIAMINE] | 103 nM |
| O=C1CCN(c2cc(Nc3ccc(Cl)c(Cl)c3)nc(N3CCN(Cc4ccccc4)CC3)n2)CC1 [Example 53, 1-[2-(4-BENZYL-1-PIPERAZINYL)-6-(3,4-DICHLOROANILINO)-4-PYRIMIDINYL]-4-PIPERIDINONE] | 36 nM |
| Cc1ccc(Nc2cc(N3CCN(c4ncccn4)CC3)nc(N3C[C@@H](C)O[C@@H](C)C3)n2)cc1 [Example 52, 2-(CIS-2,6-DIMETHYLMORPHOLINYL)-N-(4-METHYLPHENYL)-6-[4-(2-PYRIMIDINYL)-1-PIPERAZINYL]-4-PYRIMIDINAMINE] | 117 nM |
| CCNc1cc(Nc2cc(N(C)C)nc(N3CCN(Cc4ccccc4)CC3)n2)ccc1C [Example 40, 2-(4-BENZYL-1-PIPERAZINYL)-N^4-[3-(ETHYLAMINO)-4-METHYLPHENYL]-N^6,N^6-DIMETHYL-4,6-PYRIMIDINEDIAMINE] | 137 nM |
| Cc1ccc(Nc2cc(N(C)C)nc(N3CCN(c4ccccc4F)CC3)n2)cc1C [Example 19, N^4-(3,4-DIMETHYLPHENYL)-2-[4-(2-FLUOROPHENYL)-1-PIPERAZINYL]-N^6,N^6-DIMETHYL-4,6-PYRIMIDINEDIAMINE] | 118 nM |

The next lines start with the values.

| Ki | SMILES |
| --- | --- |
| 27 nM | CN(C)c1cc(Nc2ccc(Cl)c(Cl)c2)nc(N2CCN(c3ccccc3F)CC2)n1 [Example 29, N^4-(3,4-DICHLOROPHENYL)-2-[4-(2-FLUOROPHENYL)-1-PIPERAZINYL]-N^6,N^6-DIMETHYL-4,6-PYRIMIDINEDIAMINE] |
| 107 nM | COc1cccc(Nc2cc(N(C)C)nc(N3CCN(c4cccc(Cl)c4)CC3)n2)c1 [Example 8, 2-[4-(3-CHLOROPHENYL)-1-PIPERAZINYL]-N^4-(3-METHOXYPHENYL)-N^6,N^6-DIMETHYL-4,6-PYRIMIDINEDIAMINE] |
| 23 nM | CN(C)c1cc(Nc2cccc(OCc3ccccc3)c2)nc(N2CCCCC2)n1 [Example 36, N^4-[3-(BENZYLOXY)PHENYL]-N^6,N^6-DIMETHYL-2-(1-PIPERIDINYL)-4,6-PYRIMIDINEDIAMINE] |
| 65 nM | Cc1ccc(Nc2cc(N(C)C)nc(N3CCN(c4cccc(Cl)c4)CC3)n2)cc1 [Example 1, 2-[4-(3-CHLOROPHENYL)-1-PIPERAZINYL]-N^4,N^4-DIMETHYL-N^6-(4-METHYLPHENYL)-4,6-PYRIMIDINEDIAMINE] |
| 14 nM | CN(C)c1cc(Nc2cccc(OCc3ccccc3)c2)nc(N2CCN(c3ncccn3)CC2)n1 [Example 41, N-[3-(BENZYLOXY)PHENYL]-N^6,N^6-DIMETHYL-2-[4-(2-PYRIMIDINYL)-1-PIPERAZINYL]-4,6-PYRIMIDINEDIAMINE] |
| 28 nM | CN(C)c1cc(Nc2cccc(OCc3ccccc3)c2)nc(N2CCN(c3cccc(Cl)c3)CC2)n1 [Example 27, N^4-[3-(BENZYLOXY)PHENYL]-2-[4-(3-CHLOROPHENYL)-1-PIPERAZINYL]-N^6,N^6-DIMETHYL-4,6-PYRIMIDINEDIAMINE] |
| 59 nM | CN(C)c1cc(Nc2cccc(OCc3ccccc3)c2)nc(N2CCCC2)n1 [Example 37, N^4-[3-(BENZYLOXY)PHENYL]-N^6,N^6-DIMETHYL-2-(1-PYRROLIDINYL)-4,6-PYRIMIDINEDIAMINE] |
| 15 nM | CC1CC(C)CN(c2nc(Nc3cccc(OCc4ccccc4)c3)cc(N(C)C)n2)C1 (stereo not drawn) [Example 38, N^4-[3-(BENZYLOXY)PHENYL]-2-(3,5-DIMETHYL-1-PIPERIDINYL)-N^6,N^6-DIMETHYL-4,6-PYRIMIDINEDIAMINE] |
| 63 nM | CN(C)c1cc(Nc2ccc(Cl)c(Cl)c2)nc(N2CCN(c3ccccc3Cl)CC2)n1 [Example 21, 2-[4-(2-CHLOROPHENYL)-1-PIPERAZINYL]-N^4-(3,4-DICHLOROPHENYL)-N^6,N^6-DIMETHYL-4,6-PYRIMIDINEDIAMINE] |
| 29 nM | Cc1ccc(Nc2cc(N(C)C)nc(N3CCN(c4ccccc4Cl)CC3)n2)cc1 [Example 3, 2-[4-(2-CHLOROPHENYL)-1-PIPERAZINYL]-N^4,N^4-DIMETHYL-N^6-(4-METHYLPHENYL)-4,6-PYRIMIDINEDIAMINE] |
| 26 nM | CN(C)c1cc(Nc2cccc(OCc3ccccc3)c2)nc(N2CCN(c3ccc(Cl)cc3)CC2)n1 [Example 31, N^4-[3-(BENZYLOXY)PHENYL]-2-[4-(4-CHLOROPHENYL)-1-PIPERAZINYL]-N^6,N^6-DIMETHYL-4,6-PYRIMIDINEDIAMINE] |
| 57 nM | Cc1ccc(Nc2cc(N(C)C)nc(N3CCN(c4ccccc4Cl)CC3)n2)cc1C [Example 17, 2-[4-(2-CHLOROPHENYL)-1-PIPERAZINYL]-N^4-(3,4-DIMETHYLPHENYL)-N^6,N^6-DIMETHYL-4,6-PYRIMIDINEDIAMINE] |
| 62 nM | COc1cccc(Nc2cc(N(C)C)nc(N3CCN(c4ccccc4Cl)CC3)n2)c1 [Example 11, 2-[4-(2-CHLOROPHENYL)-1-PIPERAZINYL]-N^4-(3-METHOXYPHENYL)-N^6,N^6-DIMETHYL-4,6-PYRIMIDINEDIAMINE] |
| 942 nM | CCNc1cccc(Nc2cc(N(C)C)nc(N3CCN(Cc4ccccc4)CC3)n2)c1 [Example 33, 2-(4-BENZYL-1-PIPERAZINYL)-N^4-[3-(ETHYLAMINO)PHENYL]N^6,N^6-DIMETHYL-4,6-PYRIMIDINEDIAMINE] |
